The values below come from US10286063B2 (priority 2015, dated 2019).

The experiment has as its system PBMC. The experiment is classed as cell-based, human.

On to “RGILKRNSSSSSTDS [Peptide 5-HUMAN-B, reference compound]”, for which the “% Inhibition by HLA-DR blocking Ab” value is listed as 100%.
